Measurements reported in patent publication US8247437B2, “N-hydroxyamide derivatives and use thereof” (Merck Serono SA, priority 2004, dated 2012).
Where two headings read alike, the source gives them in different places.

Tests used:
collagenase (MMP-1) = target: T1, collagenase (MMP-1) (Homo sapiens, UniProt P03956); assay: MMP-1 enzyme inhibition assay (coumarin-labelled peptide substrate McaPLGLDpaAR); format: biochemical; conditions: read-out: MMP-1 IC50
T1 sequence (P03956 100-469): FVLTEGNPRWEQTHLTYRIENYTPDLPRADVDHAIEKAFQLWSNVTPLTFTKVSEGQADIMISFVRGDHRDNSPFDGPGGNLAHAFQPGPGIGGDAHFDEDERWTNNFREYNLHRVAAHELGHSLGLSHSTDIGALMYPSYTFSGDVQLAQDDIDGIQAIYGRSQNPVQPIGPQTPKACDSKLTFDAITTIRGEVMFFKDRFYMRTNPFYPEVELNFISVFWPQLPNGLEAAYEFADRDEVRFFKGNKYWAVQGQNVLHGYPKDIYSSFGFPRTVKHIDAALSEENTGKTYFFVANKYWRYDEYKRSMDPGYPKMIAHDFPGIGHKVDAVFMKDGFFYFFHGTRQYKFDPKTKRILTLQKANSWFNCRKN
Experimental: (§1) Stock solutions were made up as follows: Assay Butter: 100 mM Tris-HCl pH 7.6 is containing 100 mM NaCl, 10 mM CaCl2, and 0.05% Brij 35.
(§2) Substrate: 0.4 mM McaPLGLDpaAR (from Bachem) (0.437 mg/ml) stock solution in 100% DMSO (stored at −20° C.). Dilute to 8 μM in assay butter.
(§3) Enzyme: Recombinant human 92 kDa gelatinase (MMP-9; APMA (4-aminophenyl mercuric acetate)-activated if necessary) appropriately diluted in assay butter.
(§4) Test Compounds were prepared initially as 10 mM compound solution in 100% DMSO, diluted to 1 mM in 100% DMSO, then serially diluted 3-fold in 100% DMSO across columns 1-10 of a 96-well microtitre plate Assay concentration range, 100 μM (column 1) to 5.1 nM (column 10).
(§5) The assay was performed in a total volume of 100 μL per well in 96-well microfilm plates. Activated enzyme (20 μL) was added to the wells followed by 20 μL of assay butter. Appropriate concentrations of test compounds dissolved in 10 μL of DMSO were then added followed by 50 μL of McaPLGLDpaAR (8 μM, prepared by dilution of DMSO stock in assay butter). For each as say ten concentrations of test compound were examined in duplicate. Control wells lack either enzyme or test compound. The reactions were incubated at 37° C. for 2 hours. The fluorescence at 405 nm was measured immediately with an SLT Fluostar fluorometer (SL T Labinstruments GmbH, Grödig, Austria) using 320 nm excitation, without stopping the reaction.
(§6) The effect of the test compound was determined from the dose response curve generated by the 10 duplicate concentrations of inhibitor. The IC50 (the concentration of compound required to give a 50% decrease in enzyme activity) was obtained by fitting data to the equation, Y=a+((b−a)/(1+(c/X)^d)). (Y=inhibition achieved for a particular dose; X=the dose in nM; a=minimum y or zero % inhibition; b=maximum y or 100% inhibition; c=is the IC50; d=is the slope). The result was rounded to one significant figure.
(§7) Compounds of the invention were tested for inhibitory activity against collagenase (MMP-1) in an assay using a coumarin-labelled peptide substrate, (7-methoxycoumarin-4-yl)acetyl-Pro-Leu-Gly-Leu-(3-[2,4-dinitrophenyl]-L-2,3diaminopropionyl)-Ala-Arg-NH2 (Mca PLGLDpaAR) (Knight et al, 1992, above). The protocol for this assay was as described for the MMP-9 assay above.

[1] = target: 92 kDa gelatinase (MMP-9) (Homo sapiens, UniProt P14780); assay: MMP-9 enzyme inhibition assay (coumarin-labeled peptide substrate McaPLGLDpaAR); format: biochemical; conditions: read-out: MMP-9 IC50
Experimental: Compounds of the invention were tested for inhibitory activity against 92 kDa gelatinase (MMP-9) in an assay using a coumarin-labeled peptide substrate, (7-methoxycoumarin-4-yl)acetyl-Pro-Leu-Gly-Leu-(3-[2,4-dinitrophenyl]-L-2,3diaminopropionyl)-Ala-Arg-NH2 (McaPLGLDpaAR) (Knight et al, FEBS Lett. 1992; 263-266).
as §1, §2, §3, §4, §5, §6

gelatinase A (MMP-2) = target: T2, gelatinase A (MMP-2) (Homo sapiens, UniProt P08253); assay: MMP-2 enzyme inhibition assay (coumarin-labelled peptide substrate McaPLGLDpaAR); format: biochemical; conditions: read-out: MMP-2 IC50
T2 sequence (P08253 110-660): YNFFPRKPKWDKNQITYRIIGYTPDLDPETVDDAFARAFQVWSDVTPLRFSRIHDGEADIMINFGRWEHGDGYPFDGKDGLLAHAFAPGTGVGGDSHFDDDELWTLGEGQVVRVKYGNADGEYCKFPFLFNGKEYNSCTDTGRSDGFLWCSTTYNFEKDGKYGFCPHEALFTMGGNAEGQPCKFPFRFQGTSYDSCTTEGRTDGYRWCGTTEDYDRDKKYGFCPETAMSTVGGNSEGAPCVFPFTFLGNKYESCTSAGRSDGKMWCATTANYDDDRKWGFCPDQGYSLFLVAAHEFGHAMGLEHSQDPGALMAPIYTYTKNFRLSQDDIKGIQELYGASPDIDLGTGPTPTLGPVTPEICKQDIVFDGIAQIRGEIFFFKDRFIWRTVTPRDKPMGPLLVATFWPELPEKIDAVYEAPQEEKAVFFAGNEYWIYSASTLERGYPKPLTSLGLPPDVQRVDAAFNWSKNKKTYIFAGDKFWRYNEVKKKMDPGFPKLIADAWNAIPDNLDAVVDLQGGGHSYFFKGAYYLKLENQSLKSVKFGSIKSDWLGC
Experimental: as §1, §2, §3, §4, §5, §6
as §7, with “gelatinase A (MMP-2)” for “collagenase (MMP-1)”

metalloelastase (MMP-12) = metalloelastase (MMP-12) (Homo sapiens, UniProt P39900); assay: MMP-12 enzyme inhibition assay (coumarin-labelled peptide substrate McaPLGLDpaAR); format: biochemical; conditions: read-out: MMP-12 IC50
Experimental: as §1, §2, §3, §4, §5, §6
Compounds of the invention were tested for inhibitory activity against metalloelastase (MMP-12) in an assay using a coumarin-labelled peptide substrate, (7-methoxycoumarin-4-yl)acetyl-Pro-Leu-Gly-Leu-(3-[2,4-dinitrophenyl]-L-2,3-diaminopropionyl)-Ala-Arg-NH2 (McaPLGLDpaAR) (Knight et al, 1992, above). The protocol for this assay was as described for the MMP-9 assay above.

[2] = test system: IL-2-induced peritoneal recruitment of lymphocytes; assay: IL-2-induced peritoneal recruitment of lymphocytes; format: in vivo, C3H/HEN mice; conditions: mice, dose 1 mg/kg po, 15 min prior to IL-2; cells collected 24 h after IL-2; Table 3, Formula (I)
Experimental: Administration of IL-2 intraperitoneally causes migration of lymphocytes into the intraperitoneal cavity. This is a model for the cellular migration that occurs during inflammation.
C3H/HEN mice (Elevage Janvier, France) were intraperitoneally injected with IL-2 (Serono Pharmaceutical Research Institute, 20 μg/kg, in saline).
Compounds of the invention were suspended in 0.5% carboxymethylcellulose (CMC)/0.25% tween-20 and were administered by s.c. or p.o. route (10 ml/kg) 15 min prior to administration of IL-2.
Twenty-four hours after administration of IL-2, peritoneal white blood cells were collected by 3 successive lavages of the peritoneal cavity with 5 ml phosphate buffered saline (PBS)-1 mM EDTA (+4° C.). The suspension was centrifuged (1700 g×10 min at +4° C.). The resulting pellet was suspended in 1 ml PBS-1 mM EDTA.
Lymphocytes were identified and counted using a Beckman/Coulter counter.
The animals were divided into 6 groups (6 mice each group):
Group 1: (baseline) received 0.5% CMC/0.25% tween-20 (vehicle of compound of the invention) and saline (vehicle of IL-2);
Group 2: (control IL-2) received 0.5% CMC/0.25% tween-20 and injection of IL-2;
Group 3: Experimental group (Compound of the invention Dose 1) received a compound of the invention and injection of IL-2;
Group 4: Experimental group (Compound of the invention Dose 2) received a compound of the invention and injection of IL-2;
Group 5: Experimental group (Compound of the invention Dose 3) received a compound of the invention and injection of IL-2;
Group 6: Reference group received reference compound dexamethasone and injection of IL-2.
Inhibition of lymphocyte recruitment was calculated as follows:
Where Ly 1=Number of lymphocytes in group 1 (E3/μl), Ly 2=Number of lymphocytes in group 2 (E3/μl), Ly X=Number of lymphocytes in group X (3-5) (E3/μl).

[3] = Table 1, compounds of Formula (I)
[4] = Table 2, compounds of Formula (VI)

Chain of metalloelastase (MMP-12) (P39900 106-470): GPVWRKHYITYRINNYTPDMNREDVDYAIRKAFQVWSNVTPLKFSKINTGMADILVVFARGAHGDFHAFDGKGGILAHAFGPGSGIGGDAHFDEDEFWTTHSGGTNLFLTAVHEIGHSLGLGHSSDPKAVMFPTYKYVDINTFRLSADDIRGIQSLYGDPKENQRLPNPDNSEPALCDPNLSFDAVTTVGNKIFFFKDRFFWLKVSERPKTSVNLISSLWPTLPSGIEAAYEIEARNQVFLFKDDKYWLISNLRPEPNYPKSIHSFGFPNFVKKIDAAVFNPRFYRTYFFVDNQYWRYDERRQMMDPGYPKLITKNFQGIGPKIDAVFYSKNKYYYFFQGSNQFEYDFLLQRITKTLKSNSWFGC
Chain of 92 kDa gelatinase (MMP-9) (P14780 107-707 limits assumed): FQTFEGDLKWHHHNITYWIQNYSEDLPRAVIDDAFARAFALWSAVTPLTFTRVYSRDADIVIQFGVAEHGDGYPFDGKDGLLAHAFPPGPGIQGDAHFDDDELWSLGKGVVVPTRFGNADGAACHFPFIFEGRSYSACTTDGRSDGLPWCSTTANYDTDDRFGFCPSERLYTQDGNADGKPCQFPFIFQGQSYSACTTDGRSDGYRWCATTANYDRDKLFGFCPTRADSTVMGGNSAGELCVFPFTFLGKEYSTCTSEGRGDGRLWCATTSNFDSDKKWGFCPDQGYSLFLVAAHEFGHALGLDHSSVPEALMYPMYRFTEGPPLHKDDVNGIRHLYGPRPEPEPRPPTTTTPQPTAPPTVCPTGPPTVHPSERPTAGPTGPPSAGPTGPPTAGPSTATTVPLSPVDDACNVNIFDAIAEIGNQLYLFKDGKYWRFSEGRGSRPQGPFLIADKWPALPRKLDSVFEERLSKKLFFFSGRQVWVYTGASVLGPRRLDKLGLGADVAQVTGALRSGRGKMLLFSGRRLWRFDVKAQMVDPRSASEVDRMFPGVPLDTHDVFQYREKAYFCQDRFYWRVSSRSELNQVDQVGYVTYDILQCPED

| IC50 (collagenase (MMP-1); [3]) [µM] | IC50 [1, 3] [nM] | IC50 (gelatinase A (MMP-2); [3]) [nM] | IC50 (metalloelastase (MMP-12); [3]) [nM] | IC50 (collagenase (MMP-1); [4]) [µM] | IC50 [1, 4] [nM] | IC50 (gelatinase A (MMP-2); [4]) [nM] | IC50 (metalloelastase (MMP-12); [4]) [nM] | SMILES | % inhibition of IL-2-induced peritoneal recruitment of lymphocytes [2] [%] |
| --- | --- | --- | --- | --- | --- | --- | --- | --- | --- |
| > 5 | 585 | 89 | 4 |  |  |  |  | COc1ccc(N2CCN(C(=O)[C@@H](CC(C)C)[C@@H](O)C(=O)NO)CC2)cc1 [Example 14, (2R,3S)-N,2-dihydroxy-3-{[4-(4-methoxyphenyl)piperazin-1-yl]carbonyl}-5-methylhexanamide] |  |
| > 5 | 285 | 42 | 31 |  |  |  |  | CC(C)C[C@H](C(=O)N1CCN(c2cc(C(F)(F)F)ccn2)C[C@H]1C)[C@H](O)C(=O)NO [Example 3, (2S,3S)-N,2-dihydroxy-5-methyl-3-({(2R)-2-methyl-4-[4-(trifluoromethyl)pyridin-2-yl]piperazin-1-yl}carbonyl)hexanamide] |  |
| > 5 | 194 | 38 | 7 |  |  |  |  | O=C(NO)[C@H](O)[C@H](CCOCc1ccccc1)C(=O)N1CCN(c2ccc(-c3ccccc3)cc2)CC1 [Example 58, 3-[(4-biphenyl-4-ylpiperazin-1-yl)carbonyl]-3,4-dideoxy-1-(hydroxyamino)-5-O-(phenylmethyl)-L-threo-pentose] |  |
| 0.876 | 7 | 17 | 103 |  |  |  |  | CC(C)C[C@H](C(=O)N1CCN(c2nc(-c3ccccc3)ns2)CC1)[C@H](O)C(=O)NO [Example 2, (2S,3S)-N,2-dihydroxy-5-methyl-3-{[4-(3-phenyl-1,2,4-thiadiazol-5-yl)-1-piperazinyl]carbonyl}hexanamide] |  |
| 1.15 | 49 | 3 | < 1 |  |  |  |  | C[C@@H]1CN(c2ccc(OC(F)(F)F)cc2)CCN1C(=O)[C@@H](CC1CCCC1)[C@H](O)C(=O)NO [Example 91, (2S,3S)-3-(cyclopentylmethyl)-N,2-dihydroxy-4-{(2R)-2-methyl-4-[4-(trifluoromethoxy)phenyl]piperazin-1-yl}-4-oxobutanamide] |  |
| > 5 | 233 | 136 | 33 |  |  |  |  | CCOc1ccc(CCCC(C(=O)N2CCN(c3ccccc3F)C[C@H]2C)[C@H](O)C(=O)NO)cc1 (mixture of isomers) [Example 9, (2S,3S)-6-(4-ethoxyphenyl)-3-{[(2R)-4-(2-fluorophenyl)-2-methylpiperazin-1-yl]carbonyl}-N,2-dihydroxyhexanamide] |  |
| > 5 | 41 | 4.8 | 6 |  |  |  |  | CC(C)C[C@H](C(=O)N1CCN(c2noc(-c3ccccc3)n2)CC1)[C@@H](O)C(=O)NO [Example 56, (2R,3S)-N,2-dihydroxy-5-methyl-3-{[4-(5-phenyl-1,2,4-oxadiazol-3-yl)piperazin-1-yl]-carbonyl}hexanamide] |  |
|  |  |  |  |  |  |  |  | CCOc1ccc(CCC[C@H](C(=O)N2CCN(c3ccccn3)C[C@@H]2C)[C@H](O)C(=O)NO)cc1 [Example 7, (2S,3S)-6-(4-ethoxyphenyl)-N,2-dihydroxy-3-{[(2S)-2-methyl-4-(2-pyridinyl)piperazinyl]carbonyl}hexanamide] | 46 |
| 0.418 | 5 | 3 | 4 |  |  |  |  | CC(C)C[C@H](C(=O)N1CCN(c2ccccn2)CC1)[C@H](O)C(=O)NO [Example 1, (2S,3S)-N,2-dihydroxy-5-methyl-3-{[4-(2-pyridinyl)-1-piperazinyl]carbonyl}hexanamide] |  |
|  |  |  |  | > 5 | 45 | 47 | 17 | CCOc1ccc(CCC[C@@H](C(=O)N2CCC(Oc3ccccn3)CC2)[C@H](O)C(=O)NO)cc1 [Example 22] |  |
|  |  |  |  | > 5 | 133 | 179 | 34 | CCOc1ccc(CCC[C@@H](C(=O)N2CCC(Nc3ccc(O)cc3)CC2)[C@H](O)C(=O)NO)cc1 [Example 46, (2S,3R)-6-(4-ethoxyphenyl)-N,2-dihydroxy-3-({4-[(4-hydroxyphenyl)amino]piperidin-1-yl}carbonyl)hexanamide] |  |
